41 compounds from patent US20260015357A1, “MODULATORS OF NLRP3 INFLAMMASOME AND RELATED PRODUCTS AND METHODS” (Neumora Therapeutics, Inc., priority 2022, published 2026) can be followed below.

pIC50: −log10 of the molar value. Where only a bound is given, the exact number is not on record here.

The test system of assay [1] is IL-6. The assay is described as follows: IL-6 in supernatants of LPS-primed, nigericin-treated THP1 macrophages, Hu IL-6 AlphaLISA. It is filed as cell-based. Particulars: Homo sapiens, THP-1, PMA-differentiated, 1 hr compound, Nigericin 6.7 uM 3 hrs, IL-6 in supernatant. The method, then:
(§1) NLRP3 Inflammasome Activation and Cell Viability Assessment in THP1 Macrophages
(§2) THP1—Human acute monocytic leukemia cells were cultured (ATCC, cat #TIB-202) in Gibco RPMI-1640 medium (ThermoFisher cat #72400054) supplemented with 10% Heat Inactivated FBS at density between 3-8×10^5 viable cells/mi. The cells were then subcultured when the cell concentration reached 8×10^5 cells/mL (every 2-3 days).
(§3) The parameter wells were filled with 50 ul PBS and incubated at 37° C., 5% CO2 for 48 hrs.
(§4) After 48 hrs incubation, the PMA containing media was removed, and changed for 40 ul/well of fresh DMEM, 10% FBS, 1× GlutaMax and incubated at 37° C., 5% CO2 for 24 hrs.
(§5) The following day the cells were primed with LPS (E. coli) (Sigma, cat #L3129) […] in DMEM, 10% FBS, 1× GlutaMax for 3 hrs at 37° C., 5% CO2.
(§6) Following the LPS priming step, the cells were treated with compounds at 10 uM top final concentration, 1:4 dilution, 8 times: (10 uM, 2.5 uM, 0.625 uM, 0.156 uM, 0.039 uM, 0.0097 uM, 0.0024 uM, 0.0006 uM). DMSO was used as a vehicle control, and MCC950 (InvivoGen, cat #inh-mcc) was used at 1 uM as a positive control, and incubated for 1 hrs at 37° C., 5% CO2.
(§7) Following the 1 hr compound incubation, the NLRP3 inflammasome activation step was conducted by treating cells with Nigericin (InvivoGen, cat #tlrl-nig) at 6.7 uM final concentration for 3 hrs at 37° C., 5% CO2.
(§8) Thereafter, 30 ul samples of cells' supernatants were collected for cytokine analysis which was conducted on Hu IL-1β AlphaLISA (Perkin Elmer, cat #AL220C) and Hu IL-6 AlphaLISA (Perkin Elmer, cat #AL220C). The cells' viability was assessed by performing CellTiter-Glo Luminescent Assay (Promega, cat #G7572) according to the manufacturer's protocol.
On the technique in general: Bead proximity is the source of the signal in Alpha formats.

Assay [2] addresses T1, NLRP3 inflammasome (Homo sapiens, UniProt Q96P20).
T1 construct: host or cells: THP1 human acute monocytic leukemia cells, PMA-differentiated, LPS-primed
The assay is described as follows: NLRP3 inflammasome activation in LPS-primed, nigericin-activated THP1 macrophages, IL-1β AlphaLISA. It is filed as cell-based. Particulars: PMA-differentiated, 1 hr compound, Nigericin 6.7 uM 3 hrs, IL-1β in supernatant. The method, then: as §1, §2, §3, §4, §5, §6, §7, §8

T1 sequence (Q96P20 whole entry): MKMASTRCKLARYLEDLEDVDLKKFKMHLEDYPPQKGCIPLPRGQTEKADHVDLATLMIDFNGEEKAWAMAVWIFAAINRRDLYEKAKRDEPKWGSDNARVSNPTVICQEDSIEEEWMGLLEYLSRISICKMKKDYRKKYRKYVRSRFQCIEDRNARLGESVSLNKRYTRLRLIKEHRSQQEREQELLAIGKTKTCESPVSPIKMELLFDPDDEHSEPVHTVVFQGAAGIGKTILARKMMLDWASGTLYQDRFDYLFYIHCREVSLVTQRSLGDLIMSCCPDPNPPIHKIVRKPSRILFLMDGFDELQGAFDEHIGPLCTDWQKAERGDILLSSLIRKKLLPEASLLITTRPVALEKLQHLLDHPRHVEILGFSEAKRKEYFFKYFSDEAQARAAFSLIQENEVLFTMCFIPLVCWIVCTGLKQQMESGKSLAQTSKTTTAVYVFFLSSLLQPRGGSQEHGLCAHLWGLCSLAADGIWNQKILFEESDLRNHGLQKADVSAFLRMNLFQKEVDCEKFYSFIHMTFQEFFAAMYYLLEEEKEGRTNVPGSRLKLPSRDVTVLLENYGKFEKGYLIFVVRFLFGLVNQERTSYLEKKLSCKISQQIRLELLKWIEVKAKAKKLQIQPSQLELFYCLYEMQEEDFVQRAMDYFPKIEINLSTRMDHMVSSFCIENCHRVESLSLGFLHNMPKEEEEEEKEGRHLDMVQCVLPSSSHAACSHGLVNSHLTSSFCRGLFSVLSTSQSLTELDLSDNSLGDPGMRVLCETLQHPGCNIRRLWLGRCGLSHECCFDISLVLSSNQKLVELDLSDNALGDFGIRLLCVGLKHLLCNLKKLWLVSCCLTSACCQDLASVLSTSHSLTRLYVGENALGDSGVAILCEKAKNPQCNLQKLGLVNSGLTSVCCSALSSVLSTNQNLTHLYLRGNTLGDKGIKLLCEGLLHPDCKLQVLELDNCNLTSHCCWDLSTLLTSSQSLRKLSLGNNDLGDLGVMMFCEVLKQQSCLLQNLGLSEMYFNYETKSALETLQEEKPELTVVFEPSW

`CN1CCC[C@@H](Nc2nnc(-c3ncc(C#N)cc3O)c3cc(Cl)n(C)c23)C1` [Compound 165]: the negative-log IC50 (pIC50) (usually the IC50 on a negative log10 scale, so that one unit is a factor of ten) in assay [1] is at most 5.00; in assay [2], over 8.00.

As to `CN1CCC[C@@H](Nc2nnc(-c3ccc(C#N)cc3O)c3c2cnn3C)C1` [Compound 104], the results for the pIC50 in assay [1] and in assay [2] were at most 5.00 and 7.00 to 8.00, respectively.

Turning to `CN1CCC[C@@H](Nc2nnc(-c3ccccc3O)c3c2ccn3C)C1` (single isomer, unassigned) [Compound 67], the pIC50 in assay [1] is at most 5.00; in assay [2], 7.00 to 8.00.

As for `CN1CCC[C@@H](Nc2nnc(-c3ccc(C(F)(F)F)cc3)c3ncn(C)c23)C1` [Compound 30], the negative-log IC50 (pIC50) in assay [1] was at most 5.00; in assay [2] it was 5.00 to 6.00.

As for `CN1CCC[C@@H](Oc2nnc(-c3ccc(F)cc3O)c3ccn(C)c23)C1` [Compound 89], the negative-log IC50 (pIC50) in assay [1] is at most 5.00; in assay [2] it was 6.30 to 7.00.

Consider `Cn1ccc2c(-c3ccc(C#N)cc3O)nnc(N[C@H]3CN(CCF)CC(F)(F)C3)c21` [Compound 149], for which the negative-log IC50 (pIC50) in assay [1] and in assay [2] was at most 5.00 throughout.

As for `Cc1cc(C(F)(F)F)cnc1-c1nnc(N[C@@H]2CCCN(C)C2)c2c1cnn2C` [Compound 137], the pIC50 in assay [1] is at most 5.00; in assay [2] it was 7.00 to 8.00.

As to `Cn1ccc2c(-c3ccc(C#N)cc3O)nnc(N[C@@H]3CCCNC3)c21` [Compound 158], the negative-log IC50 (pIC50) in assay [1] is 5.00 to 5.30; in assay [2] it was 7.00 to 8.00.

On to `Cc1cc(C(F)(F)F)ccc1-c1nnc(N[C@@H]2CCCN(C)C2)c2[nH]ccc12` [Compound 6], for which the figures for the negative-log IC50 (pIC50) in assay [1] and in assay [2] were 5.00 to 5.30 and over 8.00, respectively.

Consider `CN1CCC[C@@H](Nc2nnc(-c3ccc(Cl)cc3)c3ccn(C)c23)C1` [Compound 80], for which the negative-log IC50 (pIC50) in assay [1] was at most 5.00; in assay [2], over 8.00.

Regarding `CN1CCC[C@@H](Nc2nnc(-c3ccc(Cl)cc3C(F)F)c3cnn(C)c23)C1` [Compound 118], the pIC50 was at most 5.00 in assay [1] and 7.00 to 8.00 in assay [2].

Turning to `CN1CCC[C@@H](Nc2nnc(-c3ccc(C#N)cc3O)c3c(Cl)cn(C)c23)C1` [Compound 157], the pIC50 in assay [1] is at most 5.00; in assay [2], 6.30 to 7.00.

For `Cc1cc(C#N)cnc1-c1nnc(N[C@@H]2CCCN(C)C2)c2c1ccn2C` [Compound 132], the results for the pIC50 in assay [1] and in assay [2] were at most 5.00 and 5.00 to 6.00, respectively.

On to `Cn1ccc2c(-c3ccc(C#N)cc3O)nnc(N[C@@H]3CCCN(c4ccncc4)C3)c21` [Compound 162], for which the pIC50 in assay [1] is at most 5.00; in assay [2] it was 5.00 to 6.00.

With `Cc1cc2c(-c3ccc(C(F)(F)F)cc3)nnc(N[C@@H]3CCCN(C)C3)c2n1C` [Compound 101], the pIC50 in assay [1] is 5.00 to 5.30; in assay [2] it was 7.00 to 8.00.

Regarding `CN1CCC[C@@H](Oc2nnc(-c3ccc(F)cc3O)c3ccoc23)C1` [Compound 91], the pIC50 in assay [1] was at most 5.00; in assay [2], 6.30 to 7.00.

For the compound `CN1CCC[C@@H](Nc2nnc(-c3ccc(Cl)cc3)c3cc[nH]c23)C1` [Compound 10], the pIC50 in assay [1] is 5.30 to 6.00; in assay [2], 7.00 to 8.00.

As for `COCCN1CCC[C@@H](Nc2nnc(-c3ccc(C#N)cc3O)c3cnsc23)C1` [Compound 154], the results for the pIC50 in assay [1] and in assay [2] were at most 5.00 and 7.00 to 8.00, respectively.

Turning to `Cn1ccc2c(-c3ccc(C#N)cc3O)nnc(N[C@@H]3CCCN(C4CC4)C3)c21` [Compound 146], the pIC50 in assay [1] was at most 5.00; in assay [2] it was 7.00 to 8.00.

Consider `CN1CCC[C@@H](Oc2nnc(-c3ccc(C(F)(F)F)cc3)c3ccsc23)C1` [Compound 87], for which the negative logarithm of the IC50 (pIC50) was at most 5.00 in assay [1] and 6.30 to 7.00 in assay [2].

Take `CN1C[C@H](Nc2nnc(-c3ccc(C#N)cc3O)c3ccn(C)c23)CC(F)(F)C1` [Compound 145]: the pIC50 in assay [1] and in assay [2] was at most 5.00 each time.

For the compound `Cn1ncc2c(-c3ccc(C(F)(F)F)cc3)nnc(N[C@@H]3CCCN(CC4CC4)C3)c21` [Compound 108], the pIC50 was at most 5.00 in assay [1] and 7.00 to 8.00 in assay [2].

In the case of `Cc1cc2c(-c3ccc(C(F)(F)F)cc3)nnc(N[C@@H]3CCCN(C)C3)c2[nH]1` [Compound 21], the pIC50 in assay [1] was at most 5.00; in assay [2], over 8.00.

`CN1CCC[C@@H](N(C)c2nnc(-c3ccc(C#N)cc3O)c3ccn(C)c23)C1` [Compound 102]: the values for the pIC50 in assay [1] and in assay [2] were at most 5.00 and 6.00 to 6.30, respectively.

Turning to `CNCCN1CCC[C@@H](Nc2nnc(-c3ccc(C#N)cc3O)c3ccn(C)c23)C1` [Compound 155], the pIC50 in assay [1] is at most 5.00; in assay [2], 6.30 to 7.00.

As to `Cc1cc(C#N)ccc1-c1nnc(N[C@@H]2CCCN(C)C2)c2c1cnn2C` [Compound 112], the negative-log IC50 (pIC50) in assay [1] was at most 5.00; in assay [2], 7.00 to 8.00.

As to `CN1CCC[C@@H](Oc2nnc(-c3ccc(C(F)(F)F)cc3)c3ccn(C)c23)C1` [Compound 85], the pIC50 was 5.00 to 5.30 in assay [1] and 6.30 to 7.00 in assay [2].

For the compound `CN1CCC[C@@H](Nc2nnc(-c3ncc(C#N)cc3O)c3cnn(C)c23)C1` [Compound 111], the negative-log IC50 (pIC50) in assay [1] is at most 5.00; in assay [2], 6.30 to 7.00.

Consider `CN1CCC[C@@H](N(C)c2nnc(-c3ccc(C(F)(F)F)cc3)c3cc[nH]c23)C1` [Compound 25], for which the results for the pIC50 in assay [1] and in assay [2] were at most 5.00 and 6.30 to 7.00, respectively.

Consider `CN1CCC[C@@H](N(C)c2nnc(-c3ccc(C(F)(F)F)cc3)c3ccoc23)C1` [Compound 93], for which the pIC50 was at most 5.00 in assay [1] and 5.00 to 6.00 in assay [2].

For `CCN1CCC[C@@H](Nc2nnc(-c3ccc(C(F)(F)F)cc3)c3ccn(C)c23)C1` [Compound 76], the negative-log IC50 (pIC50) in assay [1] was at least 6.00; in assay [2] it was over 8.00.

In the case of `CN1CCC[C@@H](N(C)c2nnc(-c3ccccc3O)c3cc[nH]c23)C1` (single isomer, unassigned) [Compound 24], the pIC50 in assay [1] was 5.00 to 5.30; in assay [2] it was 6.30 to 7.00.

On to `CN1CCC[C@@H](Nc2nnc(-c3ccc(C(F)(F)F)cc3)c3[nH]ccc23)C1` (single isomer, unassigned) [Compound 2], for which the negative logarithm of the IC50 (pIC50) was at most 5.00 in assay [1] and 6.30 to 7.00 in assay [2].

With `CN1CCC[C@@H](Nc2nnc(-c3ccc(F)cc3)c3[nH]ccc23)C1` [Compound 9], the negative-log IC50 (pIC50) in assay [1] and in assay [2] was at most 5.00 in each case.

With `Cn1ccc2c(-c3ccc(C#N)cc3O)nnc(N[C@@H]3CCCN(c4cccnc4)C3)c21` [Compound 163], the pIC50 in assay [1] and in assay [2] was at most 5.00 in each case.

As for `C[N+]1(C)CCC[C@@H](Nc2nnc(-c3ccc(C(F)(F)F)cc3)c3nc[nH]c23)C1` [Compound 92], the negative-log IC50 (pIC50) in assay [1] and in assay [2] was at most 5.00 each time.

Turning to `Cc1c[nH]c2c(-c3ccc(F)cc3)nnc(N[C@@H]3CCCN(C)C3)c12` [Compound 74], the negative logarithm of the IC50 (pIC50) in assay [1] and in assay [2] was at most 5.00 throughout.

As to `CN1CCC[C@@H](Oc2nnc(-c3ccc(F)cc3O)c3ccsc23)C1` [Compound 86], the figures for the negative-log IC50 (pIC50) in assay [1] and in assay [2] were at most 5.00 and 6.30 to 7.00, respectively.

For the compound `CC(C)N1CCC[C@@H](Nc2nnc(-c3ncc(C#N)cc3O)c3ccn(C)c23)C1` [Compound 99], the negative-log IC50 (pIC50) was 5.00 to 5.30 in assay [1] and over 8.00 in assay [2].

For the compound `CN1CCC[C@@H](Nc2nnc(-c3ccc(F)cc3)c3cc[nH]c23)C1` [Compound 5], the results for the pIC50 in assay [1] and in assay [2] were 5.30 to 6.00 and 7.00 to 8.00, respectively.

As for `CN1CCC[C@@H](Nc2nnc(-c3ccc(C#N)cc3O)c3ccn(C)c23)C1` [Compound 100], the pIC50 in assay [1] is 5.00 to 5.30; in assay [2] it was 7.00 to 8.00.
